# Experimental data: a melting point compilation (Tetko et al.; mined from patent text by program, amines drawn as free bases though some values may be those of a salt)
row,SMILES,melting point
1,CCCC(=O)C1=C(O)CC(c2cc(C(C)C)no2)CC1=O (stereo unspecified),105 to 107 °C
2,CCn1c(N)c(-c2ncc[nH]2)c(=O)c2ccc(-c3ccc(C(C)C(=O)NCc4ccncc4)cc3)nc21 (stereo unspecified),186 °C
3,Cc1c2c(cc3ccc(=O)oc13)C=CC(C)(C)O2,105 to 107 °C
4,CSC1COc2cc(NS(C)(=O)=O)c(Oc3ccccc3)cc2C1=O (stereo unspecified),126 to 128 °C
5,NC(=O)CNCC(=O)NCCCO,118 to 120 °C
6,CCNc1c(C#N)cnn1-c1c(F)c(F)c(C(F)(F)F)c(F)c1F,168 °C
7,COc1cc(C(=O)CBr)cc(OC)c1OC,61 to 62 °C
8,Cc1ccc(S(C)(=O)=O)c(S(=O)(=O)NC(C)(C)C)c1,129 to 133 °C
9,CCCC(COS(C)(=O)=O)(OC(C)C)c1ccc(Cl)cc1Cl (stereo unspecified),58 to 61 °C
10,CCCOc1cc(CCCOc2nn(C)cc2CC(=O)O)n(Cc2ccc(Cl)cc2Cl)n1,77 to 81 °C
11,CN1C(=O)C(=Cc2cc(C(C)(C)C)c(O)c(C(C)(C)C)c2)SC1=S,> 230 °C
12,CCCCC[C@H](CC(=O)NCc1c(C(C)C)cccc1C(C)C)c1cccc2c1OCO2,133 to 134 °C
13,Cc1nc2c(N)nc3ccccc3c2n1CCCNC(=O)C1CCCCC1,234 to 235 °C
14,COC(=O)c1cc2c(Cl)cc(C(=O)OC)c(Cl)c2c(Cl)c1Cl,140 to 142 °C
15,CCCN(C(=O)OC(C)(C)C)C1CC=C(c2c[nH]c3cc([N+](=O)[O-])ccc23)CC1 (stereo unspecified),214 to 216 °C
16,CC(Cn1ncc2ccc(O)cc21)O[Si](C)(C)C(C)(C)C (stereo unspecified),169 to 174 °C
17,Clc1nc(N2CCCCC2)c2nc(Cl)nc(N3CCCCC3)c2n1,240 to 241 °C
18,CNC(=O)N[C@H]1CC[C@H](CCN2CCN(c3ccc(OC)c(Cl)c3Cl)CC2)CC1,237 to 241 °C
19,CC(C)C1Cc2cc(OCC(=O)O)cc(Cl)c2C1=O (stereo unspecified),126 to 128 °C
20,COc1ccc(S(=O)(=O)C2(C(=O)O)CCN(CC=C(C)C)CC2)cc1,142 to 145 °C
21,COC(=O)C1(c2ccc([N+](=O)[O-])cc2)CO1 (stereo unspecified),78 to 82 °C
22,Cc1c([N+](=O)[O-])ccc2c1SC1(Cl)C=C(C(F)(F)F)C=C(Cl)C1O2 (stereo unspecified),135 °C
23,COc1ccc2nc(N3CCNCC3)ccc2c1,95 to 97 °C
24,CS(=O)c1cc(OCC(O)CNC2CCN(c3ccc(NS(=O)(=O)c4ccc(Br)cc4)cn3)CC2)ccc1O (stereo unspecified),147 °C
25,COC(=O)CCCCCCCCCCCCCCCNc1ccc(C(=O)OC)cc1,92 to 93 °C
26,CS(=O)(=O)Nn1c(=O)[nH]c2cc(C(F)(F)F)c(-n3cnc(Br)c3)cc2c1=O,229 to 233 °C
27,CN1C(=O)CCCc2ccc([N+](=O)[O-])cc21,151 to 152 °C
28,FC(F)c1nc2ccccc2n1-c1nc(Oc2cccnc2)nc(N2CCOCC2)n1,229 to 231 °C

# Next, values leading:
row,melting point,SMILES
1,88.5 to 89.5 °C,CCOC(=O)CNC(=O)COc1c(F)cc(CSCCNS(=O)(=O)c2ccc(Cl)cc2)cc1F
2,112 to 119 °C,COc1cc(NC(=O)c2cccc(CSc3cnccn3)c2)cc(OC)c1OC
3,122 to 129 °C,COc1cc(OCc2cccnc2)ccc1/C=C/c1cc(/C=C/c2cccc3cc[nH]c23)n[nH]1
4,74 to 75 °C,CCOC(=O)COc1cccc2c1CCc1sc(O)nc1-2
5,224 °C,Cn1c(=O)n(Cc2cccs2)c(=O)c2cc(C(=O)NCc3ccc4c(c3)OCO4)ccc21
6,194 to 196 °C,COc1ccc(CCNc2nc(N)c3nc(-c4ccco4)oc3n2)cc1
7,132 to 136 °C,COC(=O)c1cc(CS(=O)c2ccccc2)cnc1C1=NC(C)(C(C)C)C(=O)N1 (stereo unspecified)
8,> 250 °C,COC(=O)C(NC(=O)c1ccccc1)c1ccc(-c2ccc(S(=O)(=O)O)cc2)cc1 (stereo unspecified)
9,177 to 179 °C,Cc1noc(-c2ccc(C(=O)N3Cc4cccn4Cc4ccccc43)cc2)n1
10,124 to 125 °C,CCCc1c(OCCOc2ccc([N+](=O)[O-])cc2)ccc(C(C)=O)c1O
11,217 to 219 °C,O=C(Nc1cc2ncc(CN3CCCC3)cc2cc1F)c1ccc(-c2ccc(Cl)cc2)cc1F
12,183 to 186 °C,Cc1nc(-n2nnc(C(=O)NCc3ccccc3)c2C)sc1C(=O)NCc1ccccc1
13,208 to 210 °C,Cc1nc(N2C[C@H](C)N(Cc3ccc(F)cc3)C2=O)sc1C(=O)O
14,195 to 196 °C,COc1ccc(Cn2c(C(=O)O)c(-c3ccc4c(c3)OCO4)c3ccccc32)c(OCC(=O)O)c1
15,86 to 90 °C,N#CCc1cccc(C(=O)c2ccc(Cl)cc2)c1
16,86 to 87 °C,COC(=O)c1cccc(COC(OC(C)=O)C(=O)c2ccccc2)c1 (stereo unspecified)
17,88 to 90 °C,COc1ccc(N2CCc3ccccc32)c([N+](=O)[O-])c1
18,112 °C,OCCOc1ccc2c(-c3ccccc3F)noc2c1Cl
19,114 to 115 °C,CCc1cccc2c(C=O)cc(OC)c(O)c12
20,145 to 147 °C,O=C(Nc1ccc(-n2nc(C(F)(F)F)cc2C(F)(F)F)cc1)c1cccnc1Cl
21,219 °C,Nc1nc(N)c(-c2ccc(Cl)cc2Cl)c(Cl)n1
22,207 to 208 °C,O=C(O)CCCN1CCN(C2=Nc3ccccc3Cc3ccccc32)CC1
23,152 to 154 °C,O=c1oc(-c2ccc(OCc3ccc4ccccc4c3)cc2)cc(O)c1SCCc1ccccc1
